Entries after “also recorded” stand apart in the source; their conditions may differ.
Legend:
spinal cord tissues [1] = assay: HE staining of spinal cord tissues (void, inflammatory cells), rat spinal cord injury model; format: in vivo
Protocol: (§1) Animal models of acute spinal cord injury experiment were established by using an IMPACTOR MODEL-II spinal cord injury striking system. Sixty female Wistar rats with the age from 8 to 10 weeks and the weight from 230 to 250 g were divided into three groups with 20 rats in each group: a sham-surgery operated group, a control group (spinal cord injury group) and an experimental group, respectively. At 15 minutes before striking injury, the rats in the experimental group were injected with the compound of the formula (I) at a dose of 15 mg/kg body weight.
No spinal cord structure destroy was observed on the rats in the sham-surgery operated group. In the control group, significant changes occurred, mainly including hemorrhage, infiltration with a large number of inflammatory cells and spinal cord structural disorder, and it was observed that in grey matter, a large number of cells were lost, while in the white matter, significant swelling of neurites was observed and axonal terminals were in sphere.

[2] = tested on: rats after spinal cord injury; assay: BBB score of motor function of rear limbs after spinal cord injury; format: in vivo, rat; details: comparison between experimental group and control group
Protocol: as §1
Motor function of rear limbs of the tested animals were evaluated by scoring with BBB (Basso Beattie Bresnahan locomotor rating scale, BBB). The BBB scoring was one of internationally recognized objective standards regarding nerve functions of rats after spinal cord injury. In the project, the motor function of rear limbs of the rats was evaluated from 1 day before injury to 8 weeks after injury by double-blind independent observations and records with two persons and finally statistical analyses.

ICAM1 = ICAM1 expression of spinal cord tissue by Western Blot, rat spinal cord injury model; format: in vivo; details: 15 mg/kg injected 15 minutes before striking injury, experimental group vs control group, gray level analysis
Protocol: as §1
(§2) At 6 hours, 24 hours, 48 hours, 7 days, 14 days, and 28 days after injury, respectively, the rat spinal cord tissues were sampled for the Western Blot test, so as to test the inhibiting function of the compound of the formula (I) against the pro-inflammatory cytokines at the spinal cord injury sites.

oligodendrocytes = assay: CNpase immunohistochemical staining (oligodendrocyte survival), rat spinal cord injury model; format: in vivo
Protocol: as §1
At 48 hours and 2 weeks after injury, respectively, the three groups of spinal cord tissues were subjected to CNpase immunohistochemical staining.

IL-1β = IL-1β expression of spinal cord tissue by Western Blot, rat spinal cord injury model; format: in vivo; details: 15 mg/kg, experimental group vs control group, gray level analysis
Protocol: as §1, §2

Caspase 3 = Caspase 3 expression of spinal cord tissue by Western Blot, rat spinal cord injury model; format: in vivo; details: 15 mg/kg, experimental group vs control group, gray level analysis
Protocol: as §1
(§3) At 6 hours, 24 hours, 48 hours, 7 days, 14 days, 28 days and 56 days after injury, respectively, the rat spinal cord tissues were sampled for the Western Blot test and TUNEL staining, so as to test the inhibiting function of the compound of the formula (I) against the cell apoptosis at the spinal cord injury sites.

spinal cord tissues [3] = assay: TUNEL staining of spinal cord tissues (cell apoptosis), rat spinal cord injury model; format: in vivo; details: 48 hours after injury; 15 mg/kg; difference between control group and experimental group
Protocol: as §1, §3
At 48 hours after injury, TUNEL staining was performed on three groups of spinal cord tissues. TUNEL-stained positive cells were located in the gray matter and white matter of the spinal cords, and the cell nuclei was stained brown-yellow and mostly distributed in the center of the injure and the margin thereof. […]

TNF-α = TNF-α expression of spinal cord tissue by Western Blot, rat spinal cord injury model; format: in vivo; details: 15 mg/kg, experimental group vs control group, gray level analysis
Protocol: as §1, §2

[4] = tested on: Glial Fibrillary Acidic Protein (GFAP); assay: GFAP frozen-section immunofluorescence (glial scar), rat spinal cord injury model; format: in vivo
Protocol: as §1
2. Testing Glial Fibrillary Acidic Protein (GFAP) Expression by Frozen-Section Immunofluorescence Histochemical Method
At 48 hours after injury, the spinal cord tissues were subjected to GFAP immunofluorescent staining.

NEUN(+) neuron cells = assay: NEUN immunohistochemical staining (neuron survival), rat spinal cord injury model; format: in vivo; details: 48 hours and 2 weeks after injury; experimental group vs control group
Protocol: as §1
At 48 hours and 2 weeks after injury, respectively, the three groups of rat spinal cord tissues were subjected to NEUN immunohistochemical staining.

With `CC(C)(C)OC(=O)c1ccc(NC23CC4CC(CC(C4)C2)C3)c(/N=C\c2cncnc2)c1` [compound of the formula (I)] the “area of voids (HE staining)” value (spinal cord tissues [1]; 8 weeks after spinal cord injury, control group compared to experimental group) was “significantly increased as compared to that in the experimental group”, the “inflammatory cells (HE staining, high magnification)” value (spinal cord tissues [1]; 8 weeks after spinal cord injury, experimental group vs control group) was “significantly reduced” and the “HE staining changes (hemorrhage, inflammatory cell infiltration, spinal cord structural disorder)” value (spinal cord tissues [1]; 48 hours after injury, 200×, 15 mg/kg, vs control group) was “could significantly alleviate the above series of changes”. For the same molecule, the histopathological scores (spinal cord tissues [1]; 48 hours after injury, comparison between control group and experimental group) was “did not have statistical significance”, the BBB score ([2]; 1 week after injury) was “did not have any statistical significance (p>0.05)” and the BBB score ([2]; 2 weeks after injury) was “had a statistical significance (p<0.05)”. The BBB score ([2]; 8 weeks after injury) was “had a statistical significance (p<0.01); also recorded: significantly higher than that of the control group”, the BBB score ([2]; 48 hours after injury) was “did not have any statistical significance (p>0.05)” and the ICAM1 expression (ICAM1; 2 weeks after injury) was “significantly decreased”. The ICAM1 expression (ICAM1; 48 hours after injury) was “significantly decreased”, the “CNpase positive area and positive cells” value (oligodendrocytes; 2 weeks after injury, experimental group vs control group) was “had a larger positive area and more positive cells” and the CNpase positive area (oligodendrocytes; 48 hours after injury, vs sham-surgery operated group) was “did not markedly differ from that in the shame-surgery operated group”. For the same molecule, the “survival rate of the oligodendrocytes” value (oligodendrocytes; experimental group vs control group) was “higher than that in the control group”, the IL-1β expression (IL-1β; 2 weeks after injury) was “significantly decreased” and the IL-1β expression (IL-1β; 48 hours after injury) was “significantly decreased, close to the level of the shame-surgery operated group”. For the same molecule, the “Caspase 3 expression” value (Caspase 3; 2 weeks after injury) was “significantly decreased”, the “Caspase 3 expression” value (Caspase 3; 48 hours after injury) was “significantly decreased” and the “quantity of TUNEL-stained positive cells” value (spinal cord tissues [3]) was “had a statistical significance (p<0.05)”. For the same molecule, the TNF-α expression (TNF-α; 2 weeks after injury) was “significantly decreased”, the TNF-α expression (TNF-α; 48 hours after injury) was “decreased, close to the level of the shame-surgery operated group” and the GFAP fluorescence ([4]; 2 weeks after surgery, control group vs experimental group) was “control group was still stronger than the experimental group”. The “quantity of the formed glial scars (GFAP immunofluorescent staining)” value ([4]; 48 hours after injury, experimental group vs control group) was “significantly decreased as compared to the control group”, the “NEUN(+) neuron cells” value (NEUN(+) neuron cells) was “more positive cells were present in the experimental group” and the “survival rate of neuron cells” value (NEUN(+) neuron cells) was “higher than that in the control group”.
